Laboratory results taken from patent US8802597B2, “Herbicidal pyrimidines” (E I du Pont de Nemours and Company, priority 2003, dated 2014).
Where two headings read alike, the source gives them in different places.

Experiments:
Type in all cases: in vivo
rice (Oryza sativa) = assay: Test B flooded paddy test; details: Oryza sativa, Flood, 1000 g ai/ha; scale 0 to 100; read-out: Plant response rating, Rice
In short: (§1)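 Rice, umbrella sedge, duck salad and barnyardgrass grown to 2-leaf stage under flooded paddy conditions and treated with formulated test chemicals. Kept in greenhouse 13–15 days, then visually rated against untreated controls on a 0–100 scale (0 no effect, 100 complete control).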

[1] = system: barnyardgrass (Echinochloa crus-galli); assay: Test B flooded paddy test; details: Echinochloa crus-galli, Flood, 1000 g ai/ha; scale 0 (no effect) to 100 (complete control); read-out: Plant response rating, Barnyardgrass
In short: as §1

[2] = system: umbrella sedge (Cyperus difformis); assay: Test B flooded paddy test; details: Cyperus difformis, Flood, 1000 g ai/ha; scale 0 to 100; read-out: Plant response rating, Sedge, Umbrella
In short: as §1

[3] = system: duck salad (Heteranthera limosa); assay: Test B flooded paddy test; details: Heteranthera limosa, Flood, 1000 g ai/ha; scale 0 to 100; read-out: Plant response rating, Ducksalad
In short: as §1

wild oat (Avena fatua) = assay: Test B postemergence; details: Avena fatua, post-emergence
In short: (§2)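 Formulation: non-phytotoxic solvent blend with surfactant. Timing: preemergence on seeds, postemergence at 1- to 4-leaf (2–18 cm). Assessment: visual, 0–100 against controls, after 13–15 days' greenhouse growth.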

[4] = system: blackgrass (Alopecurus myosuroides); assay: Test B postemergence; details: Alopecurus myosuroides, post-emergence
In short: as §2

[5] = system: lambsquarters (Chenopodium album); assay: Test B pre/postemergence; details: Chenopodium album; for pest or weed control at 125 g/ha: 125 g ai/ha; for pest or weed control at 500 g/ha: 500 g ai/ha
In short: as §2

[6] = system: barnyardgrass (Echinochloa crus-galli); assay: Test B pre/postemergence; details: Echinochloa crus-galli; for pest or weed control at 125 g/ha: 125 g ai/ha; for pest or weed control at 500 g/ha: 500 g ai/ha
In short: as §2

[7] = system: giant foxtail (Setaria faberii); assay: Test B pre/postemergence; details: Setaria faberi; for pest or weed control at 125 g/ha: 125 g ai/ha; for pest or weed control at 500 g/ha: 500 g ai/ha
In short: as §2

[8] = system: pigweed (Amaranthus retroflexus); assay: Test B pre/postemergence; details: Amaranthus retroflexus; for pest or weed control at 125 g/ha: 125 g ai/ha; for pest or weed control at 500 g/ha: 500 g ai/ha
In short: as §2

[9] = system: crabgrass (Digitaria sanguinalis); assay: Test B pre/postemergence; details: Digitaria sanguinalis; for pest or weed control at 125 g/ha: 125 g ai/ha; for pest or weed control at 500 g/ha: 500 g ai/ha
In short: as §2

[10] = system: morningglory (Ipomoea coccinea); assay: Test B pre/postemergence; details: Ipomoea; for pest or weed control at 125 g/ha: 125 g ai/ha; for pest or weed control at 500 g/ha: 500 g ai/ha
In short: as §2

[11] = system: Surinam grass (Brachiaria decumbens); assay: Test B pre/postemergence; details: Urochloa decumbens; for pest or weed control at 125 g/ha: 125 g ai/ha; for pest or weed control at 500 g/ha: 500 g ai/ha
In short: as §2

corn (Zea mays) = assay: Test B pre/postemergence; details: Zea mays
In short: as §2

[12] = system: cocklebur (Xanthium strumarium); assay: Test B pre/postemergence; details: Xanthium strumarium; for pest or weed control at 125 g/ha: 125 g ai/ha; for pest or weed control at 500 g/ha: 500 g ai/ha
In short: as §2

[13] = system: wheat (Triticum aestivum); assay: Test B pre/postemergence; details: Triticum aestivum; for plant injury at 125 g/ha: 125 g ai/ha; for plant injury at 500 g/ha: 500 g ai/ha
In short: as §2

[14] = system: velvetleaf (Abutilon theophrasti); assay: Test B pre/postemergence; details: Abutilon theophrasti; for pest or weed control at 125 g/ha: 125 g ai/ha; for pest or weed control at 500 g/ha: 500 g ai/ha
In short: as §2

Nc1nc(C2CC2)nc(C=O)c1F [Compound 24]
plant injury at 1000 g/ha (rice (Oryza sativa)): 10% | pest or weed control at 1000 g/ha [1]: 0% | pest or weed control at 1000 g/ha [2]: 20% | pest or weed control at 1000 g/ha [3]: 0% | pest or weed control at 125 g/ha (wild oat (Avena fatua); 125 g ai/ha, scale 0 to 100 (0 no effect, 100 complete control), read-out: Oat, Wild plant response rating): 0% | pest or weed control at 500 g/ha (wild oat (Avena fatua); 500 g ai/ha, scale 0 to 100, read-out: Plant response rating, Oat, Wild): 0% | pest or weed control at 125 g/ha ([4]; 125 g ai/ha, scale 0 to 100 (0 no effect, 100 complete control), read-out: Blackgrass plant response rating): 0% | pest or weed control at 500 g/ha ([4]; 500 g ai/ha, scale 0 to 100, read-out: Plant response rating, Blackgrass): 10% | pest or weed control at 125 g/ha ([5]; post-emergence, Postemergence, scale 0 to 100 (0 no effect, 100 complete control), read-out: Lambsquarters plant response rating): 70% | pest or weed control at 500 g/ha ([5]; post-emergence, Postemergence, scale 0 to 100, read-out: Plant response rating, Lambsquarters): 80% | pest or weed control at 125 g/ha ([5]; pre-emergence, Preemergence, scale 0 to 100 (0 no effect, 100 complete control), read-out: Plant response rating, Lambsquarters): 70% | pest or weed control at 500 g/ha ([5]; pre-emergence, Preemergence, scale 0 to 100 (0 no effect, 100 complete control), read-out: Lambsquarters plant response rating): 90% | pest or weed control at 125 g/ha ([6]; post-emergence, Postemergence, scale 0 to 100 (0 no effect, 100 complete control), read-out: Barnyardgrass plant response rating): 0% | pest or weed control at 500 g/ha ([6]; post-emergence, Postemergence, scale 0 to 100, read-out: Plant response rating, Barnyardgrass): 10% | pest or weed control at 125 g/ha ([6]; pre-emergence, Preemergence, scale 0 to 100 (0 no effect, 100 complete control), read-out: Plant response rating, Barnyardgrass): 0% | pest or weed control at 500 g/ha ([6]; pre-emergence, Preemergence, scale 0 to 100 (0 no effect, 100 complete control), read-out: Barnyardgrass plant response rating): 20% | pest or weed control at 125 g/ha ([7]; post-emergence, Postemergence, scale 0 to 100 (0 no effect, 100 complete control), read-out: Foxtail, Giant plant response rating): 20% | pest or weed control at 500 g/ha ([7]; post-emergence, Postemergence, scale 0 to 100, read-out: Plant response rating, Foxtail, Giant): 30% | pest or weed control at 125 g/ha ([7]; pre-emergence, Preemergence, scale 0 to 100 (0 no effect, 100 complete control), read-out: Plant response rating, Foxtail, Giant): 10% | pest or weed control at 500 g/ha ([7]; pre-emergence, Preemergence, scale 0 to 100 (0 no effect, 100 complete control), read-out: Foxtail, Giant plant response rating): 60% | pest or weed control at 125 g/ha ([8]; post-emergence, Postemergence, scale 0 to 100 (0 no effect, 100 complete control), read-out: Pigweed plant response rating): 70% | pest or weed control at 500 g/ha ([8]; post-emergence, Postemergence, scale 0 to 100, read-out: Plant response rating, Pigweed): 80% | pest or weed control at 125 g/ha ([8]; pre-emergence, Preemergence, scale 0 to 100 (0 no effect, 100 complete control), read-out: Plant response rating, Pigweed): 80% | pest or weed control at 500 g/ha ([8]; pre-emergence, Preemergence, scale 0 to 100 (0 no effect, 100 complete control), read-out: Pigweed plant response rating): 90% | pest or weed control at 125 g/ha ([9]; post-emergence, Postemergence, scale 0 to 100 (0 no effect, 100 complete control), read-out: Crabgrass plant response rating): 20% | pest or weed control at 500 g/ha ([9]; post-emergence, Postemergence, scale 0 to 100, read-out: Plant response rating, Crabgrass): 40% | pest or weed control at 125 g/ha ([9]; pre-emergence, Preemergence, scale 0 to 100 (0 no effect, 100 complete control), read-out: Plant response rating, Crabgrass): 60% | pest or weed control at 500 g/ha ([9]; pre-emergence, Preemergence, scale 0 to 100 (0 no effect, 100 complete control), read-out: Crabgrass plant response rating): 80% | pest or weed control at 125 g/ha ([10]; post-emergence, Postemergence, scale 0 to 100 (0 no effect, 100 complete control), read-out: Morningglory plant response rating): 60% | pest or weed control at 500 g/ha ([10]; post-emergence, Postemergence, scale 0 to 100, read-out: Plant response rating, Morningglory): 90% | pest or weed control at 125 g/ha ([10]; pre-emergence, Preemergence, scale 0 to 100 (0 no effect, 100 complete control), read-out: Plant response rating, Morningglory): 50% | pest or weed control at 500 g/ha ([10]; pre-emergence, Preemergence, scale 0 to 100 (0 no effect, 100 complete control), read-out: Morningglory plant response rating): 90% | pest or weed control at 125 g/ha ([11]; post-emergence, Postemergence, scale 0 to 100 (0 no effect, 100 complete control), read-out: Surinam Grass plant response rating): 0% | pest or weed control at 500 g/ha ([11]; post-emergence, Postemergence, scale 0 to 100, read-out: Plant response rating, Surinam Grass): 10% | pest or weed control at 125 g/ha ([11]; pre-emergence, Preemergence, scale 0 to 100 (0 no effect, 100 complete control), read-out: Plant response rating, Surinam Grass): 10% | pest or weed control at 500 g/ha ([11]; pre-emergence, Preemergence, scale 0 to 100 (0 no effect, 100 complete control), read-out: Surinam Grass plant response rating): 50% | plant injury at 125 g/ha (corn (Zea mays); post-emergence, Postemergence, 125 g ai/ha, scale 0 to 100 (0 no effect, 100 complete control), read-out: Corn plant response rating): 0% | Corn plant response rating (crop injury, 0 = no effect, 100 = complete kill) at 500 g/ha (corn (Zea mays); post-emergence, Postemergence, 500 g ai/ha, scale 0 to 100): 10% | plant injury at 500 g/ha (corn (Zea mays); pre-emergence, Preemergence, 500 g ai/ha, scale 0 to 100 (0 no effect, 100 complete control), read-out: Corn plant response rating): 0% | pest or weed control at 125 g/ha ([12]; post-emergence, Postemergence, scale 0 to 100 (0 no effect, 100 complete control), read-out: Cocklebur plant response rating): 50% | pest or weed control at 500 g/ha ([12]; post-emergence, Postemergence, scale 0 to 100, read-out: Plant response rating, Cocklebur): 70% | pest or weed control at 125 g/ha ([12]; pre-emergence, Preemergence, scale 0 to 100 (0 no effect, 100 complete control), read-out: Plant response rating, Cocklebur): 80% | pest or weed control at 500 g/ha ([12]; pre-emergence, Preemergence, scale 0 to 100 (0 no effect, 100 complete control), read-out: Cocklebur plant response rating): 90% | plant injury at 125 g/ha ([13]; post-emergence, Postemergence, scale 0 to 100 (0 no effect, 100 complete control), read-out: Wheat plant response rating): 0% | plant injury at 500 g/ha ([13]; post-emergence, Postemergence, scale 0 to 100, read-out: Plant response rating, Wheat): 0% | plant injury at 125 g/ha ([13]; pre-emergence, Preemergence, scale 0 to 100 (0 no effect, 100 complete control), read-out: Plant response rating, Wheat): 30% | plant injury at 500 g/ha ([13]; pre-emergence, Preemergence, scale 0 to 100 (0 no effect, 100 complete control), read-out: Wheat plant response rating): 70% | pest or weed control at 125 g/ha ([14]; post-emergence, Postemergence, scale 0 to 100 (0 no effect, 100 complete control), read-out: Velvetleaf plant response rating): 40% | pest or weed control at 500 g/ha ([14]; post-emergence, Postemergence, scale 0 to 100, read-out: Plant response rating, Velvetleaf): 50% | pest or weed control at 125 g/ha ([14]; pre-emergence, Preemergence, scale 0 to 100 (0 no effect, 100 complete control), read-out: Plant response rating, Velvetleaf): 50% | pest or weed control at 500 g/ha ([14]; pre-emergence, Preemergence, scale 0 to 100 (0 no effect, 100 complete control), read-out: Velvetleaf plant response rating): 80%
